Source: ChEMBL document CHEMBL3400047, “Synthesis and binding properties of new long-chain 4-substituted piperazine derivatives as 5-HT₁A and 5-HT₇ receptor ligands” (Bioorg Med Chem Lett, 2015)

Experiments:
[1] = molecular target: T1, 5-hydroxytryptamine receptor 7 (Homo sapiens, UniProt P34969); experiment: Displacement of [3H]-8-OH-DPAT from human 5-HT7 receptor expressed in CHOK1 cells after 30 mins by liquid scintillation counting analysis; format: cell-based, CHO-K1
[2] = molecular target: T2, 5-hydroxytryptamine receptor 1A (Homo sapiens, UniProt P08908); experiment: Displacement of [3H]-5-HT from human 5-HT1A receptor expressed in CHOK1 cells after 30 mins by liquid scintillation counting analysis; format: cell-based, CHO-K1
T2 sequence (P08908 whole entry): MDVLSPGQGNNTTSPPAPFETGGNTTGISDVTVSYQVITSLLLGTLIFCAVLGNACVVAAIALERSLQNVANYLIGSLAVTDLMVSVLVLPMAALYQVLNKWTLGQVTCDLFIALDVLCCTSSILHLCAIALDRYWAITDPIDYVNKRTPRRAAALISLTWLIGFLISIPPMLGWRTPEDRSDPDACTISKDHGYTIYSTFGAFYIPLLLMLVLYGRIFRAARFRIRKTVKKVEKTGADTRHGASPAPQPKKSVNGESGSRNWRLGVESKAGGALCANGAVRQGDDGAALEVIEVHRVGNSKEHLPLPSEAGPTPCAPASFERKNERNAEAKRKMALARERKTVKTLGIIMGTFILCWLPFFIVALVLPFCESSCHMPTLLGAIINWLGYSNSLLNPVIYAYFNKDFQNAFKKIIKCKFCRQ

[3] = organism: Homo sapiens; experiment: Selectivity ratio of Ki for human 5-HT1A receptor to Ki for human 5-HT7 receptor
[4] = molecular target: 5-hydroxytryptamine receptor 1B (Homo sapiens) (UniProt P28222); experiment: Antagonist activity at human […] receptor expressed in HEK293 cells assessed as inhibition of 5-CT-induced cAMP production at 1 uM after 30 mins by TR-FRET assay; format: functional, cell-based
5-hydroxytryptamine receptor 1B (Homo sapiens), sequence (P28222 whole entry): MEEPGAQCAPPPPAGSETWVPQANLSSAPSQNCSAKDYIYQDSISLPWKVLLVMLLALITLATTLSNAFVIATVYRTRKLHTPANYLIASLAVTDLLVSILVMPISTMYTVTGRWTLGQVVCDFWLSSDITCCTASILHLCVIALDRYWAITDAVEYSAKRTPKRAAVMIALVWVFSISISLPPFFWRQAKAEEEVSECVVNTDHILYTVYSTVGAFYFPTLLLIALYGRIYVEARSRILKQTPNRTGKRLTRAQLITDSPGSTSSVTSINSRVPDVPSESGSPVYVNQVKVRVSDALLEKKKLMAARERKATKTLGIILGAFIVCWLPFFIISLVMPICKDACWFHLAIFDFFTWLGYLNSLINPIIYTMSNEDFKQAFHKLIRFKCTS

[5] = organism: Homo sapiens; experiment: Selectivity ratio of Ki for human 5-HT7 receptor to Ki for human 5-HT1A receptor
[6] = molecular target: T3, 5-hydroxytryptamine receptor 1A (Rattus norvegicus, UniProt P19327); experiment: Binding affinity to rat hippocampus 5-HT1A receptor
T3 sequence (P19327 whole entry): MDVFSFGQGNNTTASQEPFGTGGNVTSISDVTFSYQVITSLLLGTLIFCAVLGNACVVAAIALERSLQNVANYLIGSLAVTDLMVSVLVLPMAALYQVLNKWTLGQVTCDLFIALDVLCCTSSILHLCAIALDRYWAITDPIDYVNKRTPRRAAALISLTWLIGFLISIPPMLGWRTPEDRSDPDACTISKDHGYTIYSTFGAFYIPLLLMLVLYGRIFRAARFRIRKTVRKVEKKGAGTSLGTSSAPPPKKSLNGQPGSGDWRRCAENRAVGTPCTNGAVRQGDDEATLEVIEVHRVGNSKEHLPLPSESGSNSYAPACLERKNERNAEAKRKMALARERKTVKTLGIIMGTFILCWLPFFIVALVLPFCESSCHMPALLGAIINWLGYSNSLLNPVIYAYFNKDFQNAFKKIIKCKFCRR

[7] = molecular target: T1, 5-hydroxytryptamine receptor 7; experiment: Displacement of [3H]-8-OH-DPAT from human 5-HT7 receptor expressed in CHOK1 cells at 10^-5 M after 30 mins by liquid scintillation counting analysis; format: cell-based; settings: CHO-K1

T1 sequence (P34969 whole entry): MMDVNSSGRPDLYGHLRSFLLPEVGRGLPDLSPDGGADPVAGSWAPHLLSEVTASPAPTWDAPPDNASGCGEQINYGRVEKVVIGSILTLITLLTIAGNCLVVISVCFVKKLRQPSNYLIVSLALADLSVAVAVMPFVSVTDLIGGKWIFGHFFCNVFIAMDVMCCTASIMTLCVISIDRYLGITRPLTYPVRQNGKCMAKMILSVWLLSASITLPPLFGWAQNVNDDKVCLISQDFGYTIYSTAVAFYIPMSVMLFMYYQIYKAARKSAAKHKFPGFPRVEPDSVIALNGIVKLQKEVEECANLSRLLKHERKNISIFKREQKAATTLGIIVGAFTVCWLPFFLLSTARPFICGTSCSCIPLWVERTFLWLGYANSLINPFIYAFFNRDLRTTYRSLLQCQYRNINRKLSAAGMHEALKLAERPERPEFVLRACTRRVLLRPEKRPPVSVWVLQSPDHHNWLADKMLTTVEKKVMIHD

Compound	Ki [1] [nM]	Ki [2] [nM]	also measured
Cc1sc2nc(CCCCCN3CCC(Cc4ccccc4)CC3)[nH]c(=O)c2c1C	185	148	
O=c1c2ccccc2ncn1CCCCCN1CCN(c2ccccc2)CC1	307	28.9	
O=c1[nH]c(CCCCN2CCN(c3cccc(Cl)c3)CC2)nc2ccccc12	21.2	2.96	
O=c1[nH]c(CCCCCN2CCN(c3ccccc3)CC2)nc2ccccc12	228	43.5	
O=c1[nH]c(CCCCN2CCN(c3ccccc3)CC2)nc2ccccc12	145	36.6	
Cc1sc2nc(CCCCCN3CCN(c4ccc(Cl)cc4)CC3)[nH]c(=O)c2c1C	1460	53.9	
Cc1sc2nc(CCCCCN3CCN(c4cccc(Cl)c4)CC3)[nH]c(=O)c2c1C	68.4	114	Ratio Ki [3]: 2
O=c1c2ccccc2ncn1CCCCCN1CCN(c2ccc(Cl)cc2)CC1	12.9	51.5	
Cc1sc2ncn(CCCCCN3CCN(c4ccccc4)CC3)c(=O)c2c1C	143	16.1	
O=c1[nH]c(CCCCN2CCN(c3ccc(Cl)cc3)CC2)nc2ccccc12	1140	75.3	
CCOc1ccccc1N1CCN(CCCCCn2cnc3sc(C)c(C)c3c2=O)CC1	2.99	1.03	inhibition [4]: 38%
Cc1sc2nc(CCCCN3CCN(c4ccccc4)CC3)[nH]c(=O)c2c1C	357	37.4	Ratio Ki [5]: 10
Cc1sc2nc(CCCCCN3CCN(c4ccccc4)CC3)[nH]c(=O)c2c1C	30.1	15.2	
CC1CCN(CC[C@H]2CCCN2S(=O)(=O)c2cccc(O)c2)CC1			inhibition [4]: 90%
Cc1sc2ncn(CCCCCN3CCN(c4cccc(Cl)c4)CC3)c(=O)c2c1C	88.5	3.23	Ratio Ki [5]: 27
O=c1c2ccccc2ncn1CCCCN1CCN(c2cccc(Cl)c2)CC1	502	5.3	Ki [6]: 50 nM
Cc1sc2ncn(CCCCCN3CCN(Cc4ccccc4)CC3)c(=O)c2c1C	1650	211	
NC(=O)c1ccccc1NC(=O)CCCCN1CCN(c2cccc(Cl)c2)CC1	168	39.6	
Cc1sc2ncn(CCCCCN3CCN(c4ccc(Cl)cc4)CC3)c(=O)c2c1C	213	26.4	
O=c1[nH]c(CCCCCN2CCN(c3ccc(Cl)cc3)CC2)nc2ccccc12	101	116	
CCOc1ccccc1N1CCN(CCCCCn2cnc3ccccc3c2=O)CC1	6.88	1.04	inhibition [4]: 42%
Cc1sc2nc(CCCCCN3CCN(Cc4ccccc4)CC3)[nH]c(=O)c2c1C	147	363	
O=c1[nH]c(CCCCCN2CCN(c3cccc(Cl)c3)CC2)nc2ccccc12	11.9	7.33	
O=c1c2ccccc2ncn1CCCCCN1CCN(Cc2ccccc2)CC1	1080	268	
Cc1sc2nc(CCCCN3CCN(Cc4ccccc4)CC3)[nH]c(=O)c2c1C			inhibition [7]: < 50%
Cc1sc2nc(CCCCN3CCC(Cc4ccccc4)CC3)[nH]c(=O)c2c1C			inhibition [7]: < 50%
O=c1c2ccccc2ncn1CCCCCN1CCN(c2cccc(Cl)c2)CC1	35.8	6.28	
